The conditions of series [1]: in vivo.
Experimental: (§4) The 3-hexine-2,5-diol of the present invention was tested for safety.
(§5) The glycerol derivatives of the present invention i.e., 3-phenoxy-1,2-propane diol and 3-benzyloxy-1,2-propane diol, were tested for safety.
(§6) The 2,2-dimethyl-1-phenyl-1,3-propanediol of the present invention was tested for safety.
The conditions of series [2]: in vivo. This is another data set of the same source.
Experimental: as §4, §5, §6
The conditions of series [3]: in vivo. This is another data set of the same source.
Experimental: as §4, §5, §6
Series [4] has as its system Candida albicans (ATCC10231). Nature of the series: Minimum inhibiting concentration (MIC), agar plate method. The class given is cell-based. The method, then:
(§1) Using the agar plate method, for bacteria, the following various bacteria were inoculated in SCD agar media (made by Eiken) containing 3-hexine-2,5-diol in different concentrations and cultured at 30° C. for 24 hours. […] Further, for fungi, the following various bacteria were inoculated in a potato dextrose agar media containing 3-hexine-2,5-diol in different concentrations and cultured at 25° C. for 48 hours. […] The same was conducted for methyl paraoxybenzoate methyl. The results of the judgment are shown in Table 1 based on the following evaluation criteria:
(§2) Using the agar plate method, for bacteria, the following various bacteria were inoculated in SCD agar media (made by Eiken) containing 3-hexine-2,5-diol in different concentrations and cultured at 30° C. for 24 hours. […] Further, for fungi, the following various bacteria were inoculated in a potato dextrose agar media containing 3-hexine-2,5-diol in different concentrations and cultured at 25° C. for 48 hours. […] The same was conducted for methyl paraoxybenzoate methyl. The results of the judgment are shown in Table III-1 based on the following evaluation criteria:
(§3) Using the agar plate method, for bacteria, the following various bacteria were inoculated in SCD agar media (made by Eiken) containing 3-hexine-2,5-diol in different concentrations and cultured at 30° C. for 24 hours. […] Further, for fungi, the following various bacteria were inoculated in a potato dextrose agar media containing the test compound, in different concentrations and cultured at 25° C. for 48 hours. […] The same was conducted for methyl paraoxybenzoate methyl. The results of the judgment are shown in Table VII-1 based on the following evaluation criteria: […]

Series [5] concerns Pseudomonas aeuginosa (ATCC15442). The series is described as above. The class given is cell-based. The method, then: as §1, §2, §3
Series [6] relates to Escherichia coli (ATCC8739). Described as above. The format is cell-based. As for the experimental part: as §1, §2, §3
For series [7], the system named is Staphylococcus aureus (ATCC6538). The series is described as above. The class given is cell-based. The method, then:
as §1, §2, §3

Series [8] concerns Aspergillus niger (ATCC16404). The series is described as above. The class given is cell-based. As for the experimental part: as §1, §2, §3
Series [9] can be described thus: Primary skin irritation test. The following applies: in vivo.
Experimental: as §4, §5, §6
A short description of series [10]: Continuous skin irritation test. The following applies: in vivo.
Experimental: as §4, §5, §6
A further series is described as follows: Skin sensitization test. The following applies: in vivo.
Setting [11] is: Candida albicans (ATCC10231), read-out: Antimicrobial effect (minimum inhibiting concentration rank).
Setting [12] is: Table III-1, potato dextrose agar media, 25° C., 48 hours.
Where [13] appears, read: Pseudomonas aeuginosa (ATCC15442), read-out: Antimicrobial effect (minimum inhibiting concentration rank).
Setting [14] is: Table III-1, SCD agar media, 30° C., 24 hours.
Setting [15] is: Escherichia coli (ATCC8739), read-out: Antimicrobial effect (minimum inhibiting concentration rank).
Setting [16] is: Staphylococcus aureus (ATCC6538), read-out: Antimicrobial effect (minimum inhibiting concentration rank).
[17] abbreviates: Aspergillus niger (ATCC16404), read-out: Antimicrobial effect (minimum inhibiting concentration rank).
Setting [18] is: Table I-1, potato dextrose agar media, 25° C., 48 hours.
Setting [19] is: Table I-1, SCD agar media, 30° C., 24 hours.

≈ marks a conversion by molar mass, not a printed value. Read-outs that look alike come from different tables or passages of the source.

Experimental for Genetic toxicity test: as §4, §5, §6
Experimental for Skin sensitization test: as §4, §5, §6

Take `OCC(O)COc1ccccc1` (stereo not drawn) [3-Phenoxy-1,2-propane diol, 3-phenoxy-1,2-propanediol]: in [1], the “skin irritability (primary skin irritation test)” value is listed as “extremely weak”. In [2], the “skin irritability (continuous skin irritation test)” value is “extremely weak”. Besides, the “toxicity (single administration toxicity test)” value (in vivo) is given as “extremely weak”. The “skin sensitization test result” value in series [3] is on record as “negative”. The MIC in [4] (Candida albicans, ATCC10231, 48 h, read-out: Antimicrobial effect: minimum inhibiting concentration (MIC)) is under 1000 mg/L; in series [5] (Pseudomonas, ATCC15442, 24 h, read-out: Antimicrobial effect: minimum inhibiting concentration (MIC)), under 1000 mg/L; in series [6] (Escherichia coli, ATCC8739, 24 h, read-out: Antimicrobial effect: minimum inhibiting concentration (MIC)), under 1000 mg/L; in series [7] (Staphylococcus aureus, ATCC6538, 24 h, read-out: Antimicrobial effect: minimum inhibiting concentration (MIC)), under 1000 mg/L; in series [8] (Aspergillus niger, ATCC16404, 48 h, read-out: Antimicrobial effect: minimum inhibiting concentration (MIC)), under 1000 mg/L.
On to `COC(=O)c1ccc(O)cc1` [Methyl paraoxybenzoate, reference compound], for which the MIC was 1000 to 5000 mg/L (≈ 6.57 to 32.9 mM) in series [4] (Candida albicans (ATCC10231), read-out: Antimicrobial effect (minimum inhibiting concentration class)); 1000 to 5000 mg/L (≈ 6.57 to 32.9 mM) in series [4] (setting [11]); 1000 to 5000 mg/L (≈ 6.57 to 32.9 mM) in [4] (Candida albicans, ATCC10231, Table I-1, potato dextrose agar media, 25° C., 48 hours, read-out: Antimicrobial effect: minimum inhibiting concentration (MIC)); 5000 to 10000 mg/L (≈ 32.9 to 65.7 mM) in series [5] (Pseudomonas aeuginosa (ATCC15442), read-out: Antimicrobial effect (minimum inhibiting concentration class)); 5000 to 10000 mg/L (≈ 32.9 to 65.7 mM) in [5] (setting [13]); 5000 to 10000 mg/L (≈ 32.9 to 65.7 mM) in [5] (Pseudomonas, ATCC15442, Table I-1, SCD agar media, 30° C., 24 hours, read-out: Antimicrobial effect: minimum inhibiting concentration (MIC)). Also, the MIC is 1000 to 5000 mg/L (≈ 6.57 to 32.9 mM) in series [6] (Escherichia coli (ATCC8739), read-out: Antimicrobial effect (minimum inhibiting concentration class)); 1000 to 5000 mg/L (≈ 6.57 to 32.9 mM) in series [6] (setting [15]); 1000 to 5000 mg/L (≈ 6.57 to 32.9 mM) in series [6] (Escherichia coli, ATCC8739, Table I-1, SCD agar media, 30° C., 24 hours, read-out: Antimicrobial effect: minimum inhibiting concentration (MIC)); 1000 to 5000 mg/L (≈ 6.57 to 32.9 mM) in series [7] (Staphylococcus aureus (ATCC6538), read-out: Antimicrobial effect (minimum inhibiting concentration class)); 1000 to 5000 mg/L (≈ 6.57 to 32.9 mM) in series [7] (setting [16]); 1000 to 5000 mg/L (≈ 6.57 to 32.9 mM) in series [7] (Staphylococcus aureus, ATCC6538, Table I-1, SCD agar media, 30° C., 24 hours, read-out: Antimicrobial effect: minimum inhibiting concentration (MIC)). In addition, the MIC in series [8] (Aspergillus niger (ATCC16404), read-out: Antimicrobial effect (minimum inhibiting concentration class)) lay in the range of 1000 to 5000 mg/L (≈ 6.57 to 32.9 mM); in series [8] (setting [17]) it was 1000 to 5000 mg/L (≈ 6.57 to 32.9 mM); in series [8] (Aspergillus niger, ATCC16404, Table I-1, potato dextrose agar media, 25° C., 48 hours, read-out: Antimicrobial effect: minimum inhibiting concentration (MIC)) it was 1000 to 5000 mg/L (≈ 6.57 to 32.9 mM). The “Antimicrobial effect: minimum inhibiting concentration (MIC)” value in series [4] (setting [12]) is given as “B (Minimum inhibiting concentration of 1000 ppm to less than 5000 ppm)”; in series [5] (setting [14]), “C (Minimum inhibiting concentration of 5000 ppm to less than 10000 ppm)”; in [6] (setting [14]), “B (Minimum inhibiting concentration of 1000 ppm to less than 5000 ppm)”; in series [7] (setting [14]) it was “B (Minimum inhibiting concentration of 1000 ppm to less than 5000 ppm)”; in series [8] (setting [12]) it was “B (Minimum inhibiting concentration of 1000 ppm to less than 5000 ppm)”.
Regarding `CC(C)(CO)C(O)c1ccccc1` (stereo not drawn), in [1], the “skin irritability (primary skin irritation test)” value was “extremely weak”. In addition, in [2], the “skin irritability (continuous skin irritation test)” value is “extremely weak”. Besides, for the setting “single administration”, the “toxicity (single administration toxicity test)” value is “extremely weak”. The “skin sensitization test result” value in [3] is “negative”. The MIC in series [4] (setting [11]), in series [5] (setting [13]), in series [6] (setting [15]), in [7] (setting [16]) and in series [8] (setting [17]) was under 1000 mg/L in each case.
On to `CC(O)C#CC(C)O` (stereo not drawn) [3-hexine-2,5-diol], for which, in series [9], the “skin irritability (primary skin irritation test)” value is recorded as “extremely weak”. Moreover, the “toxicity (single administration toxicity test)” value (single administration) was “extremely weak”. In addition, the “genetic toxicity test result” value in “Genetic toxicity test” was “negative”. Besides, in series [10], the “skin irritability (continuous skin irritation test)” value was “extremely weak”. The “Antimicrobial effect: minimum inhibiting concentration (MIC)” value in series [4] (setting [18]), in series [5] (setting [19]), in series [6] (setting [19]), in series [7] (setting [19]) and in series [8] (setting [18]) was “A (Minimum inhibiting concentration of less than 1000 ppm)” in each case. For the same molecule, the “skin sensitization test result” value in the series “Skin sensitization test” was “negative”.
On to `OCC(O)COCc1ccccc1` (stereo not drawn) [3-Benzyloxy-1,2-propane diol, 3-benzyloxy-1,2-propanediol], for which the “skin irritability (primary skin irritation test)” value in series [1] is “extremely weak”. For the same molecule, in series [2], the “skin irritability (continuous skin irritation test)” value was “extremely weak”. Moreover, the “toxicity (single administration toxicity test)” value (single administration) is reported as “extremely weak”. In addition, in series [3], the “skin sensitization test result” value was “negative”. The MIC in [4] (Candida albicans, ATCC10231, Table III-1, potato dextrose agar media, 25° C., 48 hours, read-out: Antimicrobial effect: minimum inhibiting concentration (MIC)) is under 1000 mg/L; in series [5] (Pseudomonas, ATCC15442, Table III-1, SCD agar media, 30° C., 24 hours, read-out: Antimicrobial effect: minimum inhibiting concentration (MIC)) it was under 1000 mg/L; in series [6] (Escherichia coli, ATCC8739, Table III-1, SCD agar media, 30° C., 24 hours, read-out: Antimicrobial effect: minimum inhibiting concentration (MIC)), under 1000 mg/L; in series [7] (Staphylococcus aureus, ATCC6538, Table III-1, SCD agar media, 30° C., 24 hours, read-out: Antimicrobial effect: minimum inhibiting concentration (MIC)), under 1000 mg/L; in series [8] (Aspergillus niger, ATCC16404, Table III-1, potato dextrose agar media, 25° C., 48 hours, read-out: Antimicrobial effect: minimum inhibiting concentration (MIC)) it was under 1000 mg/L.
